Assay results reported in ChEMBL document CHEMBL1144119, “1',2',3',4'-tetradehydrotubulosine, a cytotoxic alkaloid from Pogonopus speciosus” (1999).
In brackets after ≈: the same amount, converted by molar mass.

Key:
Type in all cases: functional
[1] = Cytotoxicity against human BC1 cells; conditions: read-out: ED50 (the source's name)
[2] = test system: L1210; assay: In vivo antitumor activity against mouse L1210 cells assessed as increase in life span at 2 mg/kg
[3] = test system: LNCaP; assay: Cytotoxicity against human LNCAP cells; conditions: read-out: ED50 (the source's name)
[4] = test system: KB; assay: Cytotoxicity against human KB cells; conditions: read-out: ED50 (the source's name)
[5] = test system: KB; assay: Cytotoxicity against human multidrug resistant KB cells in absence of vinblastine; conditions: read-out: ED50 (the source's name)
[6] = test system: SK-N-SH; assay: Cytotoxicity against human SK-N-SH cells; conditions: read-out: ED50 (the source's name)
[7] = test system: M109; assay: Cytotoxicity against mouse M109 cells; conditions: read-out: ED50 (the source's name)
[8] = test system: Lu1; assay: Cytotoxicity against human Lu1 cells; conditions: read-out: ED50 (the source's name)
[9] = test system: KB; assay: Cytotoxicity against human multidrug resistant KB cells in presence of vinblastine; conditions: read-out: ED50 (the source's name)
[10] = test system: SW626; assay: Cytotoxicity against human SW626 cells; conditions: read-out: ED50 (the source's name)
[11] = test system: Col2; assay: Cytotoxicity against human Col2 cells; conditions: read-out: ED50 (the source's name)
[12] = test system: P388; assay: In vivo antitumor activity against mouse P388 cells assessed as increase in life span at 2 mg/kg

CC[C@H]1CN2CCc3cc(OC)c(OC)cc3[C@@H]2C[C@@H]1C[C@H]1NCCc2c1[nH]c1ccc(O)cc21 [TUBULOSINE]
EC50 [1]: 0.1 µg/mL (≈ 0.21 µM)
Activity [2]: 30%
EC50 [3]: < 0.16 µg/mL
EC50 [4]: < 0.16 µg/mL
EC50 [5]: 0.1 µg/mL (≈ 0.21 µM)
EC50 [6]: 0.1 µg/mL (≈ 0.21 µM)
EC50 [7]: 0.1 µg/mL (≈ 0.21 µM)
EC50 [8]: < 0.001 µg/mL
EC50 [9]: 0.1 µg/mL
EC50 [10]: 0.22 µg/mL (≈ 0.463 µM)
EC50 [11]: 0.05 µg/mL (≈ 0.105 µM)
Activity [12]: 80%

CC[C@H]1CN2CCc3cc(OC)c(OC)cc3[C@@H]2C[C@@H]1CC1=NCCc2cc(O)c(OC)cc21 [PSYCHOTRINE]
EC50 [1]: 3.4 µg/mL (≈ 7.32 µM)
EC50 [3]: 2.3 µg/mL (≈ 4.95 µM)
EC50 [4]: 2.8 µg/mL (≈ 6.03 µM)
EC50 [5]: 9.4 µg/mL (≈ 20.2 µM)
EC50 [6]: 4 µg/mL (≈ 8.61 µM)
EC50 [7]: 9 µg/mL (≈ 19.4 µM)
EC50 [8]: 5.7 µg/mL (≈ 12.3 µM)
EC50 [9]: 9 µg/mL
EC50 [10]: 13.3 µg/mL (≈ 28.6 µM)
EC50 [11]: 4.5 µg/mL (≈ 9.69 µM)

CC[C@H]1CN2CCc3cc(OC)c(OC)cc3[C@@H]2C[C@@H]1Cc1nccc2c1[nH]c1ccc(O)cc12
EC50 [1]: 3.9 µg/mL (≈ 8.27 µM)
EC50 [3]: 6.8 µg/mL (≈ 14.4 µM)
EC50 [4]: 2.2 µg/mL (≈ 4.66 µM)
EC50 [5]: 8.8 µg/mL (≈ 18.7 µM)
EC50 [6]: 4 µg/mL (≈ 8.48 µM)
EC50 [7]: 4.4 µg/mL (≈ 9.33 µM)
EC50 [8]: 3.6 µg/mL (≈ 7.63 µM)
EC50 [9]: 9 µg/mL
EC50 [10]: 6.1 µg/mL (≈ 12.9 µM)
EC50 [11]: 2.8 µg/mL (≈ 5.94 µM)
